Data on one compound can be found in patent US8642510B2, “Inhibitors for brassinosteroid signalling” (GMI-Gregor Mendel-Institut fuer Molekulare Pflanzenbiologie …, priority 2008, dated 2014).

“Also recorded” adds a separate entry of the source.

The data set can be described thus: Cell-permeability assay (uptake by seedlings). The conditions noted are these: 50 μM in medium. The class given is in vivo, A. thaliana. As for the experimental part: FIG. 6: Methylation increases tissue-permeability. A. thaliana seedlings were incubated in 50 μM solutions of compounds 10 and 15 in ½MS medium. Samples were taken after the indicated time and the in situ levels of compound 15 analysed by HPLC. The solid line represents the results for plants incubated with compound 10 and the dashed line the results for compound 15. The means and standard deviations were calculated from 3 independent assays.
Two-week-old A. thaliana Co10 seedlings were transferred to ½MS medium containing 50 μM inhibitor. Samples were removed after the indicated time points, rinsed with water, dried with filter paper and frozen in liquid nitrogen. For analysis the plant material was ground to a fine powder in a mortar pre-cooled with liquid nitrogen. […]
The cell-permeability of a substance is an important characteristic influencing its in vivo potency. The uptake of compounds 10 and 15 by plants was determined by treatment of seedlings with solutions of these compounds and subsequent quantification of the internalised inhibitor concentrations (FIG. 6). Since compound 10 is rapidly converted to 15, only the in situ concentration of 15 was measured. […] While 50 μM were present in the medium, in situ concentrations of about 90 μM could be measured in the case of compound 15 and up to 190 μM in the case of application of compound 10.

`COC(=O)CCC(=O)Nc1ccc(I)cn1` [Compound 10, 4-[(5-iodopyrid-2-yl)amino]-4-oxobutanoic acid methyl ester]: the “Uptake rate relative to compound 15” value is recorded as “roughly double”. For the same compound, the “Tissue permeability / uptake” value (result in words) is recorded as “higher tissue permeability; also recorded: very rapid uptake”.
